Measurements reported in ChEMBL document CHEMBL1201862, “PubChem BioAssay data set” (2004).
The source made the active and inactive calls.

Columns and labels:
Protein skinhead-1 = target: T1, Protein skinhead-1 (Caenorhabditis elegans, UniProt P34707); assay type: functional
T1 sequence (P34707 whole entry): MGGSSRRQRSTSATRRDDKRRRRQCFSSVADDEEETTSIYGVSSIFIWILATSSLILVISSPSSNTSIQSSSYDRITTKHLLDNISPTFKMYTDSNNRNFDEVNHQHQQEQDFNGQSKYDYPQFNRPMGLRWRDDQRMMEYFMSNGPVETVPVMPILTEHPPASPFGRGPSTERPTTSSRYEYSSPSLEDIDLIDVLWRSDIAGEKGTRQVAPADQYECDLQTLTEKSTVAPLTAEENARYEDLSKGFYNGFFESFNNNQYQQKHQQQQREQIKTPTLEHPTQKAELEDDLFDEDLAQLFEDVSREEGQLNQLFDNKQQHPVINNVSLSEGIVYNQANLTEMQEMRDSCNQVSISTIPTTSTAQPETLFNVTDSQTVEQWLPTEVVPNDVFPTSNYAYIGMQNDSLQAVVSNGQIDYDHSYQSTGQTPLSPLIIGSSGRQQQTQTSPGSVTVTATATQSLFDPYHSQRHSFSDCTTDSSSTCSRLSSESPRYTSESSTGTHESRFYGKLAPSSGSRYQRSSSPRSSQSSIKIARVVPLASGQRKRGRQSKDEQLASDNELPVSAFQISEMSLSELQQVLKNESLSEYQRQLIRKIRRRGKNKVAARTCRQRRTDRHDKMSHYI

Protein RecA = target: T2, Protein RecA (Mycobacterium tuberculosis, UniProt P9WHJ3); experiment: Fluorescence Cell-Free Homogeneous Dose Retest to Identify Inhibitors of RecA-Intein Splicing Activity. [Related pubchem assays (depositor defined):AID2097, AID2223, AID489010, AID492950]; assay type: functional
T2 sequence (P9WHJ3 whole entry): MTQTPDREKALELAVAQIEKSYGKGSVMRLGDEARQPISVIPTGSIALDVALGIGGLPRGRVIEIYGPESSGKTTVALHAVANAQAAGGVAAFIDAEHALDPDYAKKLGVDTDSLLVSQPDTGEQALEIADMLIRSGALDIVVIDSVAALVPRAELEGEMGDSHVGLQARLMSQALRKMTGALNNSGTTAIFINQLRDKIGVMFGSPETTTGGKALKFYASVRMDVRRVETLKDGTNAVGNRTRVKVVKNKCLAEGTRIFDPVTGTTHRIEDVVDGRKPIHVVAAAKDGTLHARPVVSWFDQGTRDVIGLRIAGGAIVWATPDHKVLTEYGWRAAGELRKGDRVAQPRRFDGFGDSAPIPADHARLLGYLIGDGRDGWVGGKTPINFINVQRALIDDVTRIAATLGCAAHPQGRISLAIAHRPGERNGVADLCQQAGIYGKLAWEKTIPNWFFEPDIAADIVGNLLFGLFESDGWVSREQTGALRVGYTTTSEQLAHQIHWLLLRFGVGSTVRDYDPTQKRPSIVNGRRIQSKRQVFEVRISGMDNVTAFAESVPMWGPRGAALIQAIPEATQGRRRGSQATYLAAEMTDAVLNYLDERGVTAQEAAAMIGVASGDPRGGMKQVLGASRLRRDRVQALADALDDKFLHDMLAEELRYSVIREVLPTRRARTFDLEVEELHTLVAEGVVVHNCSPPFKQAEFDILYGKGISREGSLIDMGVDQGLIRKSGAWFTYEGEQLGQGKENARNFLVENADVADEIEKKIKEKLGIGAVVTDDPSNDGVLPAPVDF

[1] = target: T3, Replicative DNA helicase DnaB (Mycobacterium tuberculosis, UniProt P9WMR3); experiment: DnaB intein splicing inhibitors, dose response, biochemical, cell-free fluorescence (AID 449749); assay type: functional
T3 sequence (P9WMR3 whole entry): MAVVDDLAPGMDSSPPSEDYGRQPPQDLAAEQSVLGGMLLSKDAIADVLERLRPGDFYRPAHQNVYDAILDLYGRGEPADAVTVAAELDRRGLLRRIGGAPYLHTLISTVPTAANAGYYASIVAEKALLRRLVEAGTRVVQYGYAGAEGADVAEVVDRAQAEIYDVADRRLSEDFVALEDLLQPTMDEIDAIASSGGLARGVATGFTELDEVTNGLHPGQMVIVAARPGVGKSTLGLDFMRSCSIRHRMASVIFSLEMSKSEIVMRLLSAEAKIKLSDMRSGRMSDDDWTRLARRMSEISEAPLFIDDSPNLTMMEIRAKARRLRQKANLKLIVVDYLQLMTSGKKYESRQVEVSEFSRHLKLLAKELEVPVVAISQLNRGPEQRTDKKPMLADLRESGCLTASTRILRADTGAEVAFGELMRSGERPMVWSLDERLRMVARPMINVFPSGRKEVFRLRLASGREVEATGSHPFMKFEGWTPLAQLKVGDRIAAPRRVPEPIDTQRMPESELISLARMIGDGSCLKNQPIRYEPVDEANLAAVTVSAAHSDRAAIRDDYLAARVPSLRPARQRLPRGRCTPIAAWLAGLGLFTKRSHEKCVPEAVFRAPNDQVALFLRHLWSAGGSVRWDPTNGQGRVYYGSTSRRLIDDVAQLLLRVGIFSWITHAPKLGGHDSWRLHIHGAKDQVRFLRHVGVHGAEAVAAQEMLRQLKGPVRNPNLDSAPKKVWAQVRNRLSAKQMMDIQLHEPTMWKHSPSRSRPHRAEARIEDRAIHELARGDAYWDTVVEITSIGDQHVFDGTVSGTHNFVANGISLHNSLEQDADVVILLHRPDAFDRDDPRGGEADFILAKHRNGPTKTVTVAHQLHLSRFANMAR

[2] = Luminescence Cell-Based Dose Retest to Confirm Inhibitors of Cancer Stem Cells. [Related pubchem assays (depositor defined):AID2717, AID2721]; assay type: functional; conditions: Homo sapiens
INS1 = experiment: beta cell apoptosis inhibitors, cytokine rescue, dose response, luminescence, retest (AID 449756); assay type: functional, cell-based; conditions: Rattus norvegicus;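 note: cell death triggered by IL-1 beta plus TNF-alpha plus IFN-gamma mixture; protective hits raise ATP signal compared with cytokine alone wells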
[3] = inhibitors of SNCA 5'UTR-driven reporter translation, confirmation, H4 neuroglioma cells, luminescence (AID 1988); assay type: functional, cell-based
[4] = inhibitors of firefly luciferase expression or activity, dose response, H4 neuroglioma cells, luminescence (AID 1990); assay type: functional, cell-based
[5] = Luminescence Cell-Based Dose Response HTS to Identify Inhibitors of 5'UTR Stem-Loop Driven Prion Protein mRNA Translation in H4 Neuroglioblastoma Cells. [Related pubchem assays: 1827 (Project Summary), 1813 (Primary HTS)]; assay type: functional
[6] = target: T4, Zinc finger protein mex-5 (Caenorhabditis elegans, UniProt Q9XUB2); experiment: MEX-5/TCR-2 RNA interaction inhibitors, dose response, biochemical, C. elegans, fluorescence polarization (AID 1960)
T4 sequence (Q9XUB2 whole entry): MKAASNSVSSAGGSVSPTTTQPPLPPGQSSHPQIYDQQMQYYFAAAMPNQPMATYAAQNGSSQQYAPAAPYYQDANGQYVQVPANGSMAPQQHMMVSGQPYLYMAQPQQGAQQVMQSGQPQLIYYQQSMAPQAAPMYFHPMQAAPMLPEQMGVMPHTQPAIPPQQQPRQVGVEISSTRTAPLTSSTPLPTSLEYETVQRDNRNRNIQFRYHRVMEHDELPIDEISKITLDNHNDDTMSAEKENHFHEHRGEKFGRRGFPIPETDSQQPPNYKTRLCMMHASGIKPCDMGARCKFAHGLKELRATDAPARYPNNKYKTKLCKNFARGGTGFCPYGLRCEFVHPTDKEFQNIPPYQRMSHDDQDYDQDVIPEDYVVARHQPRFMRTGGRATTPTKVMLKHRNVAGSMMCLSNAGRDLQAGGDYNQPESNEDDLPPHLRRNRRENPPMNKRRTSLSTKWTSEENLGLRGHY

[7] = target: T5, RNA-binding protein pos-1 (Caenorhabditis elegans, UniProt G5EF15); experiment: inhibitors of POS-1/mex-3 RNA binding, dose response, biochemical, fluorescence polarization (AID 1964);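 note: purified POS-1 fused to maltose binding protein made in E. coli; potency of compounds blocking POS-1 binding to fluorescent RNA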
T5 sequence (G5EF15 whole entry): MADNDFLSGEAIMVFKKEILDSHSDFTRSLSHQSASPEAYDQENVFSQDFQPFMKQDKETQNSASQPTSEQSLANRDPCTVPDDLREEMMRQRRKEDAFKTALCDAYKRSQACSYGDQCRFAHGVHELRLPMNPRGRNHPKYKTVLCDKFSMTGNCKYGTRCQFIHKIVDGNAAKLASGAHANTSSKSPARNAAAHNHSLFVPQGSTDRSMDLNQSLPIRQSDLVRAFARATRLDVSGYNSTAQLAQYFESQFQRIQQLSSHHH

[8] = Luminescence Cell-Based Dose Confirmation HTS to Identify Activators of 5'UTR Stem-Loop Driven Alpha-Synuclein mRNA Translation in H4 Neuroglioblastoma Cells. [Related pubchem assays: 1829 (Project Summary), 1814 (Primary HTS)]; assay type: functional
H4 = experiment: Luminescence Cell-Based Dose Response HTS to Identify Activators of 5'UTR Stem-Loop Driven Prion Protein mRNA Translation in H4 Neuroglioblastoma Cells. [Related pubchem assays: 1829 (Project Summary), 1814 (Primary HTS)]; assay type: functional; conditions: Homo sapiens
[9] = Luminescence Cell-Based Dose Response HTS to Identify Activators of Luciferase Translation or Activity in H4 […] Cells. [Related pubchem assays: 1829 (Project Summary), 1814 (Primary HTS)]; assay type: functional
cells [10] = assay type: functional, cell-based
cells [11] = assay type: functional, cell-based; remark: listed apart in the source
[12] = target: T6, Rac GTPase-activating protein 1 (Homo sapiens, UniProt Q9H0H5); experiment: MgcRacGAP GTPase-activating activity inhibitors, confirmation, biochemical, ADP Hunter fluorescence, primary and confirmatory (AID 624330); assay type: functional
T6 sequence (Q9H0H5 whole entry): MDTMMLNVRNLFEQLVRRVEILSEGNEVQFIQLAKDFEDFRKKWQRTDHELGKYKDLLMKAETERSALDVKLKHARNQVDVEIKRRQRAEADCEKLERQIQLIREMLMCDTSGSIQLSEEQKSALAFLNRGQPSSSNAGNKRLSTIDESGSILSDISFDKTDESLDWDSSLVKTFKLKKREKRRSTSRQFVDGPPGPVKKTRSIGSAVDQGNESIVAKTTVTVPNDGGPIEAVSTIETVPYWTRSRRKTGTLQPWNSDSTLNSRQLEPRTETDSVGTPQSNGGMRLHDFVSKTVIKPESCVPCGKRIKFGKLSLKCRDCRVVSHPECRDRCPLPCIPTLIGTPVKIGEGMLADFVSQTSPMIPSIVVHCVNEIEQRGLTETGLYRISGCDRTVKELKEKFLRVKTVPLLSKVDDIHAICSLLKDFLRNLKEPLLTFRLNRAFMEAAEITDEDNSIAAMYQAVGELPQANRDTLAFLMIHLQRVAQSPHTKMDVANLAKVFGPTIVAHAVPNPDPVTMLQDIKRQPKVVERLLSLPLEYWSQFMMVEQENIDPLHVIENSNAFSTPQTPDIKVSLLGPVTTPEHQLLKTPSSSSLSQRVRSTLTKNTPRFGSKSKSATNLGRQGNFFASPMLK

cells [13] = assay type: functional

| SMILES | IC50 (Protein skinhead-1) | EC50 (Protein RecA) | AC50 [1] | other results |
| --- | --- | --- | --- | --- |
| C(=C\c1ccc2ccccc2n1)/c1ccccc1 | 24.8 µM (active) | – | – | – |
| O=C1c2ccccc2-c2nnc(-c3ccc(O)cc3)cc21 | – | 1.13 µM (active) | 15.4 µM (active) | – |
| CN(CCC#N)C(=O)Cn1nc(Cc2ccncc2)c2ccccc2c1=O | – | > 380 µM (inactive) | > 380 µM (inactive) | – |
| CCCCOC(=O)Nc1ccc(C(C)C)cc1 | 42.4 µM (active) | – | – | – |
| O=C(/C=C/c1ccco1)N1CCc2ccccc21 | 48.6 µM (active) | – | – | – |
| CS(=O)(=O)c1ccc(C(=O)OCC(=O)NC23CC4CC(CC(C4)C2)C3)cc1[N+](=O)[O-] | – | 1.32 µM (active) | 1.18 µM (active) | AC50 [2]: 2.4 µM (active) |
| Cc1cccc(CSC(Nc2ccc(F)cc2)=C(C#N)C#N)c1 | – | 10.9 µM (active) | 7.03 µM (active) | AC50 (INS1): 4.83 µM (active) |
| Cc1ccc2[nH]c3c(c2c1)CN(C(=O)CN1CCSCC1)CC3 | – | 0.132 µM (active) | > 380 µM (inconclusive) | – |
| Cc1cc(C(=O)CSc2nnc(-c3cccs3)n2Cc2ccccc2)c(C)n1C | > 100 µM (inactive) | – | – | – |
| Cc1cccc(C)c1OCC(O)CN(Cc1ccccc1O)C1CCCCC1 (centres undefined) | > 100 µM (inactive) | – | – | EC50 [3]: > 120 µM (not active); EC50 [4]: > 120 µM (not active); EC50 [5]: > 120 µM (not active) |
| Cn1c(SCC(=O)NCC2CCCO2)ncc(C(=O)Nc2ccc(Cl)cc2)c1=O (centres undefined) | – | 1.13 µM (active) | > 380 µM (inactive) | – |
| N#C/C(=C/c1cccn1-c1cccc(C(=O)O)c1)c1ccc(F)cc1 | – | > 380 µM (inconclusive) | 14.1 µM (active) | EC50 [6]: > 300 µM (not active); EC50 [7]: > 300 µM (not active) |
| CCOc1ccc2c(=O)c(Oc3ccccc3OCC)coc2c1 | > 100 µM (inactive) | – | – | EC50 [8]: 7.35 µM (active); EC50 (H4): 19.3 µM (active); EC50 [9]: 7.99 µM (active) |
| Cc1cccc(C(=O)O/N=C(\N)c2ccc(Cl)cc2)c1 | – | – | – | EC50 (cells [10]): > 350 µM (not active); EC50 (cells [11]): 16.7 µM (active) |
| C(#Cc1ccc2c(c1)COc1c3ccccc3nn1-2)c1ccccc1 | > 100 µM (inactive) | – | – | EC50 [6]: 169 µM (active); EC50 [7]: > 300 µM (not active) |
| Cc1cc(C)c(NC(=O)C[S+]([O-])CC(=O)Nc2ccc(N3CCOCC3)cc2)c(C)c1 (centres undefined) | > 100 µM (inactive) | – | – | – |
| CC(=O)Nc1ccc(NC(=O)C2Cc3c(-c4cccc(F)c4)ccnc3O2)cc1 (centres undefined) | > 100 µM (inactive) | – | – | – |
| CC1OC(c2ccccc2)OC2COC(c3ccccc3)OC12 (centres undefined) | > 100 µM (inactive) | – | – | – |
| O=C(N/N=C/c1ccc(O)cc1)c1cccc(C(F)(F)F)c1 | – | – | – | IC50 [12]: 83.9 µM (active); IC50 (cells [13]): 38.6 µM (active) |
| COC1(OC)C(/C=C/c2ccc(C)cc2)C(C#N)(C#N)C1(OC)OC (centres undefined) | – | > 380 µM (inactive) | > 380 µM (inactive) | – |
| CCO/C(O)=C1\C(C)=NC(SCc2cc(O)[nH]n2)=C(C#N)C1c1cccs1 (centres undefined) | – | 4.99 µM (active) | 6.16 µM (active) | – |
